Results as given in publication PMC9032718, “Eltrombopag as an Allosteric Inhibitor of the METTL3-14 Complex Affecting the m^6A Methylation of RNA in Acute Myeloid Leukemia Cells” (Pharmaceuticals, 2022).

Assays:
[1] = biological target: T1, SMYD3 (Homo sapiens, UniProt Q9H7B4); test: Methyltransferase selectivity panel (MT HotSpot radioisotope assay), SMYD3; format: biochemical; conditions: 10 μM eltrombopag, SMYD3
T1 construct: purchased Reaction Biology (Malvern, PA, USA), contract assay
T1 sequence (Q9H7B4 1-428): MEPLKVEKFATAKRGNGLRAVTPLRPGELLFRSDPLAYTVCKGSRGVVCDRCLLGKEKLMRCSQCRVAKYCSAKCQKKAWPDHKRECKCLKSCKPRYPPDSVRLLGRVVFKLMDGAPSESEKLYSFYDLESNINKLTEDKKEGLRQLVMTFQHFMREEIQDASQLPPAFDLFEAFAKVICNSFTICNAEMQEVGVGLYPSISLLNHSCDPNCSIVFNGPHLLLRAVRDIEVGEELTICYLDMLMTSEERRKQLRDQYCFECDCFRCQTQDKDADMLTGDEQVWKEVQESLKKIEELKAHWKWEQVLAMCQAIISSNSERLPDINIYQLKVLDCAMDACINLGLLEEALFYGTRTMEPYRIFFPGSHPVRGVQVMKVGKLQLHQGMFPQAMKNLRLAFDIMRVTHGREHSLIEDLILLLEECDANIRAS
Procedure: The selectivity profile of eltrombopag was investigated by testing the level of inhibition in a methyltransferase panel. The inhibition of 7 […] methyltransferase was tested at Reaction Biology (Malvern, PA, USA) using a gold standard radioisotope-based MT assay (MT HotSpot^TM) with 10 μM of eltrombopag in duplicate.

[2] = test system: THP-1 cells; test: Anti-proliferative assay (EZ-cytox), THP-1; format: cell-based; conditions: Homo sapiens, THP-1, 72 h
Procedure: The MOLM-13, MOLM-14, HL60, MV4-11, and THP-1 cells were seeded in white 96-well clear bottomed plates with 100 μL of medium (5000 cells/well). The plated cells were treated with serially diluted compounds and incubated for 72 h at 37 °C. After incubation, 10 μL of EZ-cytox kit reagent from the EZ-cytox cell viability assay kit (DaeiLab, Seoul, Korea) was added to each well and then incubated for 3 h at 37 °C. The absorbance of metabolically active cells was measured at a wavelength of 450 nm using a Victor multilabel reader (PerkinElmer). The GI50 values were calculated by nonlinear regression analysis using OriginPro 9.1 software (OriginLab).

[3] = test system: MOLM-13 cells; test: Combinatorial analysis of AML drugs with eltrombopag (EZ-cytox, Synergyfinder); format: cell-based; conditions: Homo sapiens, MOLM-13; for inhibition at 1.5 µM: MOLM-13, eltrombopag alone 1,500 nM; for inhibition at 3 µM: MOLM-13, eltrombopag alone 3,000 nM; for inhibition at 6 µM: MOLM-13, eltrombopag alone 6,000 nM; for inhibition at 12 µM: MOLM-13, eltrombopag alone 12,000 nM
Procedure: The MOLM-13 cells were seeded in white 96-well clear bottomed plates with 50 μL of medium (5000 cells/well). The plated cells were treated with serially diluted eltrombopag and current AML drugs, including venetoclax, cytarabine, gilteritinib, and sorafenib, to a final volume of 100 μL and incubated for 72 h at 37 °C. After incubation, 10 μL of EZ-cytox kit reagent from the EZ-cytox cell viability assay kit (DaeiLab) was added to each well and then incubated for 3 h at 37 °C. The absorbance of metabolically active cells was measured at a wavelength of 450 nm using a Victor multilabel reader (PerkinElmer). The synergy scores of each combination were quantified by the HAS model, ZIP model, Loewe additivity model, and Bliss independence models using Synergyfinder software. Positive or negative synergy scores obtained through these models represent synergy and antagonism, respectively.

## CC1=NN(c2ccc(C)c(C)c2)C(=O)/C1=N\Nc1cccc(-c2cccc(C(=O)O)c2)c1O [Eltrombopag]
[1]
  remaining activity at 10 µM: 98.7 ± 5.7%
[2]
  GI50: 22.3 ± 0.4 µM
[3]; cytarabine matrix (panel C)
  inhibition at 1.5 µM: 9.02 ± 5.05%
  inhibition at 3 µM: 24.8 ± 2.76%
  inhibition at 6 µM: 61.6 ± 1.03%
  inhibition at 12 µM: 93.83 ± 0.61%
[3]; venetoclax matrix (panel A)
  inhibition at 1.5 µM: 13 ± 2.13%
  inhibition at 3 µM: 30 ± 5.01%
  inhibition at 6 µM: 69.4 ± 2.33%
  inhibition at 12 µM: 94.91 ± 0.86%
